One test has as its target T1, human TLR7 (Homo sapiens, UniProt Q9NYK1).
T1 construct: host or cells: human HEK-Blue cells (HEK293-derived) co-expressing TLR7 and an NF-kB/AP1-inducible SEAP reporter
T1 sequence (Q9NYK1 27-1049): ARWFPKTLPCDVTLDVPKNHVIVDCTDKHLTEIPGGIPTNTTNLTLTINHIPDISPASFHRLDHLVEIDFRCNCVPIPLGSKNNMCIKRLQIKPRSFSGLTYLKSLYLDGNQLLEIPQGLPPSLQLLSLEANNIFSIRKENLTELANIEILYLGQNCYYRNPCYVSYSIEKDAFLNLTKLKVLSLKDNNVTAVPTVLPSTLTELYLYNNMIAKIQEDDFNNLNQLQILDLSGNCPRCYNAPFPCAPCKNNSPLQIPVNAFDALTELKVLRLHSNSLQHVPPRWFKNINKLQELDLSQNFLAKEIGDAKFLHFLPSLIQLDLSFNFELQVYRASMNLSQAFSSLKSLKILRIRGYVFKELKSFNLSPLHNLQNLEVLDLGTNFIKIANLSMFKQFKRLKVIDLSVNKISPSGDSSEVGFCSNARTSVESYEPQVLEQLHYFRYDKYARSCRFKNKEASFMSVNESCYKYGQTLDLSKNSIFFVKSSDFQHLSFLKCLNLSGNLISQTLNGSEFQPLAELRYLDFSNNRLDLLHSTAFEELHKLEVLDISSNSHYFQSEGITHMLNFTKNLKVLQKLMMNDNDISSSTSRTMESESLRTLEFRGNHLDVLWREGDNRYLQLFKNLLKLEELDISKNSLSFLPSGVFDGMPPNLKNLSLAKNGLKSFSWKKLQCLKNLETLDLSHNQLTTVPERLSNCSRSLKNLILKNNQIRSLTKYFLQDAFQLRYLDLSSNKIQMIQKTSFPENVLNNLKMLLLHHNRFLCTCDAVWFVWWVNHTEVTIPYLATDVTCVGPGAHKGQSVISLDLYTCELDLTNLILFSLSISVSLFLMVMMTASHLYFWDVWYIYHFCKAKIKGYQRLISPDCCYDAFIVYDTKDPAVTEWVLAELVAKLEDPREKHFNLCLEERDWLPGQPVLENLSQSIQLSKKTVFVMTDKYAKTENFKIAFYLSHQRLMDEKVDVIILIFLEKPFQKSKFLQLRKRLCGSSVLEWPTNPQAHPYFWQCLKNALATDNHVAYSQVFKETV
Kind of test: In vitro human TLR7 binding reporter assay (HEK-Blue, NF-kB/AP1-inducible SEAP). It is filed as cell-based. The note with it: HEK-Blue human TLR7 SEAP reporter cells; activity range classes; read-out: TLR7 Agonist EC50. As for the experimental part: (§1) In Vitro Human TLR7 and TLR8 Binding Reporter Assays
(§2) Logarithmically-growing human HEK-Blue cells co-expressing a TLR7 or TLR8 gene and a NF-kB/AP1-inducible SEAP (secreted embryonic alkaline phosphatase; Invivogen, San Diego, CA) reporter gene are added to individual wells of a 384-well plate (15,000 cells per 20 μL per well) and maintained for 24 h at 37° C., 5% CO2. Test compounds or DMSO are distributed to separate wells the next day using acoustic liquid handling technology (100 nL per well) and cells are subsequently incubated for 18 h at 37° C., 5% CO2. Cellular SEAP production is measured using an Envision plate reader instrument thirty minutes after adding freshly-made Quanti-Blue reagent (prepared by following manufacturer instructions; Invivogen, San Diego, CA) to the HEK-Blue TLR Nf-kB-SEAP cell reactions. All EC50 values (half-maximal effective concentration) are determined using proprietary data analysis software. Normalized EC50 value=absolute value determined by setting 100% Ymax using a reference standard RLU (relative light unit) values from cells treated with 50 μM of the reference standard.

Test [1] has as its system IL-1β production in PMA-differentiated THP-1 cells. Nature of the test: Measurement of IL-1β production in PMA-differentiated THP-1 cells (ELISA, 4 hours). It is filed as cell-based, human. The note with it: assayed using one or more of the described procedures, read-out: NLRP3 hIL1B IC50. As to the method: Measurement of IL-1β Production in PMA-Differentiated THP-1 Cells THP-1 cells were purchased from the American Type Culture Collection and sub-cultured according to instructions from the supplier. Prior to experiments, cells were cultured in RPMI 1640 containing 10% heat inactivated FBS, penicillin (100 units/ml) and streptomycin (100 μg/ml), and maintained in log phase prior to experimental setup. Prior to the experiment THP-1 were treated with PMA (Phorbol 12-myristate 13-acetate) (10 μg/ml) for 24 hours. The day of the experiment the media was removed and attaching cells were treated with trypsin for 2 minutes, cells were then collected, washed with PBS (phosphate buffer saline), spin down, resuspended in 2% heat inactivated FBS with RPMI at a concentration of 1×10^6 cells/ml, and 100 μl was plated in a 96 well plate. Compounds were dissolved in dimethyl sulfoxide (DMSO) and added to the culture medium to achieve desired concentration (e.g. 100, 30, 10, 3, 1, 0.3 or 0.1 μM). Cells were incubated with compounds for 4 hours. Cell free supernatant was collected and the production of IL-1β was evaluated by ELISA. A vehicle only control was run concurrently with each experiment. Final DMSO concentration was 1%.
A general note: In an ELISA, binding on a coated surface is turned into a signal by an enzyme label.

For a further test, the target named is T2, human TLR8 (Homo sapiens, UniProt Q9NR97).
T2 construct: host or cells: human HEK-Blue cells (HEK293-derived) co-expressing TLR8 and an NF-kB/AP1-inducible SEAP reporter
T2 sequence (Q9NR97 27-1041): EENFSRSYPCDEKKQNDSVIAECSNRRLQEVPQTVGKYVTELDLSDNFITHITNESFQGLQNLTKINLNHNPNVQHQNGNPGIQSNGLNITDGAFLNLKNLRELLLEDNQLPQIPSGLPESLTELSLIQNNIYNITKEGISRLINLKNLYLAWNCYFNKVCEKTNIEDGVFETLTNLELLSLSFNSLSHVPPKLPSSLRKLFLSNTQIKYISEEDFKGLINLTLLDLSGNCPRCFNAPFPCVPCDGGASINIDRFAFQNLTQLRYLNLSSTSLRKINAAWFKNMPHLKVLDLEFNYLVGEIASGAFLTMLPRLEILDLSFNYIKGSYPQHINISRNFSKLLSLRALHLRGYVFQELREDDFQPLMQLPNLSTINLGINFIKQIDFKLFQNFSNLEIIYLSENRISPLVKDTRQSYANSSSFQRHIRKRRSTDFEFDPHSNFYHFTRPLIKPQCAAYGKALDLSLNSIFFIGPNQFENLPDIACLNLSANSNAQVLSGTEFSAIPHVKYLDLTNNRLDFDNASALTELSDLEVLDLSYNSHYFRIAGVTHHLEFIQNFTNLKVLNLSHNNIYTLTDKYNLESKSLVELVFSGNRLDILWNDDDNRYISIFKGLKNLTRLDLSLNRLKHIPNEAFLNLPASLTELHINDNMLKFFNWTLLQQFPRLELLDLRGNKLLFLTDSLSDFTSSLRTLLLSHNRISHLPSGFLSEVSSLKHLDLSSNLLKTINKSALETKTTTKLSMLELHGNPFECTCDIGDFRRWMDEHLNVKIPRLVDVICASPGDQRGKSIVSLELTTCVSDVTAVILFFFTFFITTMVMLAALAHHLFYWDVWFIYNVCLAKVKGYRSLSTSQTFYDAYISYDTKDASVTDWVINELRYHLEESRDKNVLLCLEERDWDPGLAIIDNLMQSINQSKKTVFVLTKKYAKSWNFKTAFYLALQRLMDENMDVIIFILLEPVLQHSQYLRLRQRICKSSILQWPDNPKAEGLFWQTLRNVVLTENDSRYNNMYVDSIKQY
Kind of test: In vitro human TLR8 binding reporter assay (HEK-Blue, NF-kB/AP1-inducible SEAP). The note with it: HEK-Blue human TLR8 SEAP reporter cells; activity range classes; read-out: TLR8 Agonist EC50. It is filed as cell-based. As for the experimental part: as §1, §2
(In general: Reporter assays use an easily measured gene product as a stand-in for the process of interest.)

Setting [2] is: Homo sapiens, THP-1, human IL-1β production.

Like-named read-outs stand apart in the source and are kept apart here.

For “3-[4-amino-7-(1H-pyrazol-3-yl)-[1,3]oxazolo[4,5-c]quinolin-2-yl]propan-1-ol [Compound 107]”, the EC50 at human TLR7 and on human TLR8 was above 100 µM each time. In addition, the concentration for half-maximal inhibition (IC50) – broadly, the concentration at which inhibition is half-maximal – in test [1] (human IL-1β production) came out at 0.34 µM.
Turning to `Nc1cc(N[C@H]2CCCC[C@H]2O)c2ccc(-c3ccn[nH]3)cc2n1` (racemic) [Compound 157], the concentration for a half-maximal effect (EC50) on human TLR7 and on human TLR8 was above 100 µM each time. The IC50 in test [1] (human IL-1β production) turned out to be 0.73 µM.
`Nc1cc(O[C@H]2COC[C@H]2O)c2ccc(-c3ccn[nH]3)cc2n1` (racemic) [Compound 197]: the EC50 at human TLR7 and at human TLR8 was above 100 µM each time. For the same compound, the IC50 in test [1] (setting [2]) amounted to 2.86 µM.
In the case of `Nc1cc(NC2CCNC2)c2ccc(-c3ccn[nH]3)cc2n1` (stereo in doubt) [Compound 321, (S)-7-(1H-pyrazol-3-yl)-N4-(pyrrolidin-3-yl)quinoline-2,4-diamine], the EC50 at human TLR7 and on human TLR8 was above 100 µM each time. The 50% inhibitory concentration (IC50) in test [1] (human IL-1β production) worked out at 11.6 µM.
Consider `Nc1nc2cc(-c3cc[nH]n3)ccc2cc1CCCCCO` [Compound 101, 5-[2-amino-7-(1H-pyrazol-3-yl)quinolin-3-yl]pentan-1-ol], for which the EC50 on human TLR7 and at human TLR8 was above 100 µM each time. Besides, the 50% inhibitory concentration (IC50) in test [1] (setting [2]) was found to be 0.79 µM.
Turning to `Nc1nc2cc(-c3cc[nH]n3)ccc2cc1CCCCO` [Compound 102, 4-[2-amino-7-(1H-pyrazol-3-yl)quinolin-3-yl]butan-1-ol], the concentration giving a half-maximal response (EC50) at human TLR7 and at human TLR8 was above 100 µM throughout. For the same compound, the concentration for half-maximal inhibition (IC50) in test [1] (setting [2]) was found to be 1.38 µM.
Turning to `Nc1nc2cc(-c3cc[nH]n3)ccc2cc1CCCO` [Compound 103, 3-[2-amino-7-(1H-pyrazol-3-yl)quinolin-3-yl]propan-1-ol], the EC50 at human TLR7 and at human TLR8 was above 100 µM each time. For the same compound, the IC50 in test [1] (setting [2]) is 1.6 µM.
As for `Nc1nc2cc(-c3cc[nH]n3)ccc2cc1CCCOCc1ccccc1` [Compound 104, 3-[3-(benzyloxy)propyl]-7-(1H-pyrazol-3-yl)quinolin-2-amine], the EC50 at human TLR7 and at human TLR8 was above 100 µM throughout. Besides, the IC50 in test [1] (setting [2]) is 0.69 µM.
For `Nc1nc2cc(-c3cc[nH]n3)ccc2cc1CCCCOCc1ccccc1` [Compound 105, 3-[4-(benzyloxy)butyl]-7-(1H-pyrazol-3-yl)quinolin-2-amine], the half-maximal effective concentration (EC50) at human TLR7 and on human TLR8 was above 100 µM in each case. For the same compound, the IC50 in test [1] (setting [2]) amounted to 2.98 µM.
Turning to `Nc1cc(CCCOCc2ccccc2)c2ccc(-c3cc[nH]n3)cc2n1` [Compound 108, 4-[3-(benzyloxy)propyl]-7-(1H-pyrazol-3-yl)quinolin-2-amine], the IC50 in test [1] (setting [2]) is 1.15 µM.
The same measure, in the same setting: under `Nc1nc2cc(-c3ccn[nH]3)ccc2cc1CNCC1CCCO1` (stereo not drawn) [Compound 117] stands 5.8 µM.
Regarding `Nc1nc2cc(-c3ccn[nH]3)ccc2cc1C1(CO)CC1` [Compound 120], the IC50 in test [1] (setting [2]) was determined as 4.24 µM.
With `Nc1nc2cc(-c3ccn[nH]3)ccc2cc1CCN1CCOCC1` [Compound 121], the 50% inhibitory concentration (IC50) in test [1] (setting [2]) stood at 3.03 µM. For the same compound, on human TLR8, the EC50 (in general, the concentration that produces a half-maximal response) is above 100 µM.
With `CN1CCN(CCc2cc3ccc(-c4ccn[nH]4)cc3nc2N)CC1` [Compound 122], the concentration for half-maximal inhibition (IC50) in test [1] (setting [2]) was 1.87 µM.
The same measure, in the same setting: under `Nc1nc2cc(-c3ccn[nH]3)ccc2cc1-c1cnc[nH]1` [Compound 123, 3-(1H-imidazol-5-yl)-7-(1H-pyrazol-5-yl)quinolin-2-amine] stands 3.01 µM.
Same read-out and setting: under `Nc1nc2cc(-c3ccn[nH]3)ccc2cc1-c1cccc(CO)n1` [Compound 125] stands 1.98 µM.
Consider `Cc1n[nH]c(-c2cc3ccc(-c4ccn[nH]4)cc3nc2N)n1` [Compound 126], for which the IC50 in test [1] (setting [2]) came to 3.53 µM.
Regarding `CN1CCN(c2cc(N)nc3cc(-c4ccn[nH]4)ccc23)CC1` [Compound 130], the half-maximal inhibitory concentration (IC50) in test [1] (setting [2]) stood at 2.76 µM. In addition, the EC50 at human TLR8 is above 100 µM.
The corresponding values for `CN(C)CCCNc1cc(N)nc2cc(-c3ccn[nH]3)ccc12` [Compound 168, N4-(3-(dimethylamino)propyl)-7-(1H-pyrazol-5-yl)quinoline-2,4-diamine] are 2.4 µM and above 100 µM.
Taken in the same sequence, the figures for `Nc1cc(NCCCO)c2ccc(-c3ccn[nH]3)cc2n1` [Compound 171] were 0.38 µM and above 100 µM.
The corresponding values for `Nc1cc(OCCCN2CCCC2=O)c2ccc(-c3ccn[nH]3)cc2n1` [Compound 181] are 9.92 µM and above 100 µM.
Regarding `CN1CCN(CCCCOc2cc(N)nc3cc(-c4ccn[nH]4)ccc23)CC1` [Compound 184], the 50% inhibitory concentration (IC50) in test [1] (setting [2]) came out at 7.27 µM. Moreover, the concentration for a half-maximal effect (EC50) at human TLR8 is above 100 µM.
Turning to `Nc1cc(NCCC2CCOCC2)c2ccc(-n3cccn3)cc2n1` [Compound 346, 7-(1H-pyrazol-1-yl)-N4-(2-(tetrahydro-2H-pyran-4-yl)ethyl)quinoline-2,4-diamine], the EC50 on human TLR7 is above 100 µM. Also, the IC50 in test [1] (setting [2]) was found to be 0.76 µM.

The values above are taken from US12171756B2, “NLRP3 modulators” (Innate Tumor Immunity, Inc., priority 2017, dated 2024).
